Source: publication PMC8402032, “Unsymmetric Cisplatin-Based Pt(IV) Conjugates Containing a PARP-1 Inhibitor Pharmacophore Tested on Malignant Pleural Mesothelioma Cell Lines” (Molecules, 2021)

How the values were obtained:
MSTO-211H cells = experiment: Cell uptake (intracellular Pt by ICP-MS); format: cell-based, human; details: 10 μM, 4 h treatment, mean ± sd
Protocol: Cellular accumulation of compounds 6–9 was evaluated by means of the intracellular Pt uptake after 4 h treatment of MSTO-211H cells and expressed as ng Pt per 10^6 cells (Table 1). As expected, the Fmoc protection of 6 and 7 enhances the lipophilicity of the complexes, facilitating their cell uptake. Also the elongation of the organic linker from -(CH2)2- to -(CH2)6- increases (to a minor extent) the lipophilicity in 7 and 9 with respect to 6 and 8.
MSTO-211H cells were seeded in […] Petri dishes and challenged with the compounds and mixtures under investigations (10 μM) in complete medium. At the end of the exposure, cells were washed three times with phosphate buffered saline (PBS) and detached from the Petri dishes using 0.05% Trypsin 1X + 2% EDTA (HyClone, Thermo Fisher). The cells were harvested in fresh complete medium and an automatic cell counting device (Countess®, Life Technologies, Carlsbad, CA, USA) was used to measure the number and the mean diameter from every cell count. The harvested cells were transferred into a borosilicate glass tube and centrifuged at 1100× g rpm for 5 min at room temperature. The supernatant was carefully removed by aspiration, but about 200 μL of the supernatant was left in order to limit the cellular loss. Finally, the cellular pellets were stored at −80 °C. Platinum content determination was performed by ICP-MS (Thermo Optek X Series 2). Complete mineralization was obtained by the addition of 70% w/w HNO3 to each sample (after defrosting), followed by incubation for 1 h at 60 °C in an ultrasonic bath. Before the ICP-MS measurement, the HNO3 was diluted to a final 1% concentration. The instrumental settings were optimized to yield maximum sensitivity for platinum, and the most abundant isotopes of Pt (m/z = 195) and In (m/z = 115, used as internal standard) were quantified. The level of Pt found in cells after the treatment was normalized to the cell number and expressed as ng of Pt per 10^6 cells.

[1] = Reduction with ascorbic acid followed by RP-HPLC; format: physicochemical; details: ascorbic acid 10 mM, HEPES 50 mM pH 7.4, 37 °C, cosolvent DMF or MeOH, 24 h
Protocol: To verify the activation by reduction mechanism, complexes 6–9 were challenged with the model bioreductant ascorbic acid (AA, 10 mM in water) in HEPES buffer (HEPES = 4-(2-hydroxyethyl)-1-piperazineethanesulfonic acid, 50 mM, pH = 7.4) at 37 °C. The reaction was monitored by following the RP-HPLC peaks over 24 h. The different solubility and retention times required different experimental conditions for the different compounds (cosolvent DMF or MeOH was necessary to maintain the Pt compounds in solution, >5% v/v). For these reasons, complete reduction for 8 and 9 was observed after 8 h, whereas for 6 and 7, the >85% peak area disappeared after 24 h only. […] Complexes 6–9, having very similar coordination skeletons, can be expected to behave in the same way.
The reduction of complexes with ascorbic acid was followed by monitoring of the reduction of the area of their chromatographic peaks via RP-HPLC over 24 h at 37 °C. The Pt compounds were dissolved in methanol or DMF (up to 20 mM) and diluted with different quantities of 50 mM 4-(2-hydroxyethyl)piperazine-1-ethanesulfonic acid (HEPES) buffer (pH = […]) containing 10 mM ascorbic acid. The mixtures were microfiltered to eliminate the precipitated complex. The chromatographic conditions were similar to those for the determination of lipophilicity (see Section 3.4), with different percentages of methanol depending on the complex.

PARP-1 = target: T1, PARP-1 (Homo sapiens, UniProt P09874); experiment: Western blot of poly(ADP-ribose) (PAR) and PARP-1 in MSTO-211H cells; format: cell-based; details: 5 µM, 72 h
T1 construct: endogenous in cells; host or cells: MSTO-211H cells
T1 sequence (P09874 whole entry): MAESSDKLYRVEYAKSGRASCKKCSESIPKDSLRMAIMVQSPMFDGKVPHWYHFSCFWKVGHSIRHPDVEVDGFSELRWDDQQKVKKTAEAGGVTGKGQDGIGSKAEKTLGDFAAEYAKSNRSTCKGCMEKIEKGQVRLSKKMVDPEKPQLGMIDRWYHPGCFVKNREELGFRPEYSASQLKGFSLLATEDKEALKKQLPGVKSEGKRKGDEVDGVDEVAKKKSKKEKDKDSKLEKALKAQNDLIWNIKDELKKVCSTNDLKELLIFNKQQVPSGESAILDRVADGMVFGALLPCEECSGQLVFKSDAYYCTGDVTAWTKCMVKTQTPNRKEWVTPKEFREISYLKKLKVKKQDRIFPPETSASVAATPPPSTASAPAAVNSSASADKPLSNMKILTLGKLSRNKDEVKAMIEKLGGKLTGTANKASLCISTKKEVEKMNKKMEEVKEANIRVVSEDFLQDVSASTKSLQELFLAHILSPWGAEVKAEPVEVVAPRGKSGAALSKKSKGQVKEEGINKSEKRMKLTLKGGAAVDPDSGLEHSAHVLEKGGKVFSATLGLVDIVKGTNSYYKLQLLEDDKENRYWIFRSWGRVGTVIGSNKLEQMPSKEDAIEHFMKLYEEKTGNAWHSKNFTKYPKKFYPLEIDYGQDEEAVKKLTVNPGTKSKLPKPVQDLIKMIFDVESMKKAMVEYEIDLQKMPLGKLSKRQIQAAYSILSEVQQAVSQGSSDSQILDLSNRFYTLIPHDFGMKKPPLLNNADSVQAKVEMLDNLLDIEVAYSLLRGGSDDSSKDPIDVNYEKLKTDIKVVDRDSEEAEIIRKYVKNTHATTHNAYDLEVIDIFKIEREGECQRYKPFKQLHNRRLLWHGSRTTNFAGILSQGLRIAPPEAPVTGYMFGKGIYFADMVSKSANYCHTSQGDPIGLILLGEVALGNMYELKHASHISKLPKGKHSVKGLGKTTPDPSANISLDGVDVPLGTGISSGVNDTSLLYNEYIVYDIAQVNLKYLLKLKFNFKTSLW
Protocol: The effect of the most promising complex 6 on PARP-1 activity was further evaluated. MSTO-211H cells were treated with equimolar concentrations (5 µM) of 6, CDDP, and 3-ABA for 72 h. The two last compounds were used either alone or in combination in a 1:1 molar ratio. Western blot analysis evaluated the expression of poly(ADP-ribose) (PAR), which is the product of PARP-1 activity (Figure 4A).
For protein analysis, cells were extracted with 1% NP-40 lysis buffer (50 mM Tris-HCl pH 8.5 containing 1% NP-40, 150 mM NaCl, 10 mM EDTA, 10 mM NaF, 10 mM Na4P2O7, and 0.4 mM Na3VO4) with freshly added protease inhibitors (10 μg mL^−1 leupeptin, 4 μg mL^−1 pepstatin, and 0.1 U mL^−1 aprotinin). Lysates were centrifuged at 13,000× g for 10 min at 4 °C and the supernatants were collected and assayed for protein concentration with the Bradford assay method (Bio-Rad). Proteins were separated by SDS-PAGE (sodium dodecyl sulfate polyacrylamide gel electrophoresis) under reducing conditions. Following SDS-PAGE, proteins were transferred to nitrocellulose, reacted with specific antibodies, and then detected with peroxidase-conjugate secondary antibodies and chemioluminescent ECL reagent. Digital images were taken with the Bio-Rad ChemiDocTM Touch Imaging System and quantified using Bio-Rad Image Lab 5.2.1.
Figure 4 (A) Representative Western blot showing poly(ADP-ribose) (PAR) and PARP-1 expression following 72 h MSTO-211H cell treatment with diluent (Ctrl) or 5 µM concentrations of cisplatin (CDDP), 6, CDDP + 3-ABA combination (1:1 ratio), and 3-ABA alone. HSC70 protein was used as loading control. (B) Immunocytochemistry was used to capture representative γH2AX focus images following 72 h MSTO-211H cell treatment with diluent (Ctrl) or 5 µM of complex 6.

human MPM cell lines = experiment: Antiproliferative activity on the panel of human MPM cell lines (summary); format: cell-based
Protocol: Complexes 6–9 were tested on a panel of human MPM cell lines together with CDDP and SAA1, added for comparison (Table 1). The half-maximal inhibitory concentration, IC50, was determined on MSTO-211H (biphasic phenotype), REN (epithelioid), BR95 (epithelioid), and MM98 (sarcomatoid) cancer cell lines to identify the most promising Pt(IV) conjugate to be further investigated. To determine the number of viable cells, the use of the dye exclusion assay was preferred to the colorimetric assay because of the heterogeneity in the energy metabolism between the different MPM cell lines. This may justify minor differences with respect to the previously published IC50 for CDDP [40].
Cells were seeded at a density of 10 × 10^4 cells per well in 6-well plates in RPMI medium supplemented with 10% fetal bovine serum (FBS), 100 μg mL^−1 streptomycin, and 10 μg mL^−1 penicillin and incubated overnight at 37 °C in a humidified environment containing 5% CO2 to allow adherence. Cisplatin was dissolved in 0.9% w/v aqueous NaCl brought to pH = 3 with HCl (final stock concentration 1 mM). […]
Following 72 h of treatment with the diluent of the compound (Ctrl) or different doses of the Pt compounds, cells were trypsinized and stained with Trypan blue. The number of cells considered viable (unstained cells) was counted in a Bürker haemocytometer within 5 min after staining.

SMILES: CC(=O)[O][Pt]([NH2])([NH2])([Cl])([Cl])[O]C(=O)CCNC(=O)c1cccc(NC(=O)OCC2c3ccccc3-c3ccccc32)c1 [Compound 6, (OC-6-44)-Acetato[3-(3-(fmoc-amino)-benzamido)-propanoato]-diammine-dichlorido-platinum(IV)]
- Pt Uptake (MSTO-211H cells): 10.64 ± 1.77 ng Pt per 10^6 Cells
- peak area disappeared after 24 h [1]: > 85%
- PARP-1 cleavage (PARP-1): complex 6 alone did
- PARP-1 parylation (PAR expression) (PARP-1): No self-parylation of PARP-1
- ratio between the IC50 of CDDP and the IC50 of the Pt(IV) complex, all cell lines (human MPM cell lines): around 2
